Measured values from US20200179488A1, “Secretin Receptor Agonists to Treat Diseases or Disorders of Energy Homeostasis” (Technische Universität München, priority 2016, published 2020).

Legend:
UCP1 expression [1] = experiment: UCP1 mRNA expression (qRT-PCR) in primary adipocytes from inguinal white adipose tissue; type: cell-based, Mus musculus; conditions: 0.1 μM secretin or 0.5 μM isoproterenol, 6 hours, normalized to TFIIB (FIG. 4A)
Description: (§1) For culturing primary adipocytes male 129S1/SvImJ mice ([…] or UCP1-KO mice and wildtype littermates) at the age of 5-6 weeks were used for the dissection of inguinal and epidydimal white adipose tissue and interscapular brown adipose tissue depots. The tissue was carefully minced and treated with collagenase for 45 min at 37° C. The homogenate was filtered through a 250 μm nylon mesh and centrifuged at 500 g to collect the stromal vascular fraction (SVF). The SVF cell pellet was rinsed and seeded into XF96 V3-PS cell culture microplate (Seahorse Bioscience). After reaching confluency, induction medium containing 10% fetal bovine serum (FBS), 0.5 mM isobutylmethylxanthine, 125 nM indomethacin, 1 mM dexamethasone, 850 nM insulin and 1 nM T3 was added. […] Respiration was measured on day 7 of differentiation. […] RNA was eluted in 50 μl nuclease-free water and RNA concentration was determined spectrophotometrically (Infinite 200 PRO NanoQuant, Tecan, Männedorf/Switzerland). Reverse transcription into cDNA was performed with 500 ng RNA in a final volume of 10 μl (Quantitect Reverse Transcription Kit, Quiagen, Hilden/Germany). qRT-PCR was conducted on 384 well plates in a total volume of 12.5 μl comprising 6.25 μl SensiMix SYBR No-ROX (Bioline, London/UK), 250 nM forward and reverse primers, and 1 μl template cDNA (LightCycler 480 System, Roche Diagnostics, Rotkreuz/Switzerland). […]

UCP1 knockout mice [2] = experiment: Food intake on refeeding of fasted Ucp1 knockout mice; type: in vivo, Mus musculus; conditions: fasted 18 h, 5 nmol i.p., 4 hours of refeeding, compared to wildtype (FIG. 8)
Description: (§2) For the measurement of food intake, a feeding-drinking-activity (FDA) device was used (TSE Systems, Bad Homburg/Germany). During the measurement mice were single-housed in type-III cages. Mice were habituated to the new cage environment and received every morning at 10 a.m. a single daily intraperitoneal (i.p.) PBS-injection for four days ahead of the experiment start. The body weight of the mice was measured every day. On day four day of habituation the food was removed from the cages at 5 p.m., and the mice were food deprived over night with ad libitum access to water. On the next morning, mice were i.p. injected with either PBS as control or secretin (rat, Tocris, Art Nr 1919). The latter was given in different doses. Subsequently the mice were refed ad libitum while monitoring food intake during the following 72 hours. […] Food intake was calculated from the decrease in feeder weight. The results were exported into a spreadsheet calculation table (Excel, Microsoft) and analyzed with a software package for statistics and graphics (GraphPad Prism 4.0, GraphPad Software, San Diego, USA).
(§3) Next to thermogenesis, brown fat has been proposed to function in the thermoregulatory control of feeding. […] Just before refeeding, mice were intra-peritoneally injected with 5 nmol secretin solved in PBS, or PBS as the vehicle control, and food intake was monitored for the following three days.

UCP1 knockout mice [3] = experiment: Indirect calorimetry, heat production after i.p. injection in UCP1 knockout mice; type: in vivo, Mus musculus; conditions: 0.5 mg/kg i.p., 27° C., 60 minutes, p=0.482 (FIG. 6B, 6C)
Description: Indirect calorimetric measurements in mice were performed using an open flow respirometry system (Phenomaster, TSE Systems, Bad Homburg/Germany). All animals were kept at room temperature or cold-acclimated at 4° C. for 4 days as indicated in the results section. For the gas exchange measurement (O2 consumption and CO2 production) mice were placed individually in metabolic cages (type I, 3 liter volume) without food and water and transferred to a climate cabinet (TPK 600, Feutron, Greiz/Germany). The air was continuously pulled through the cages at a flow rate of 33 l/h. For gas analysis a subsample was dried in a cooling trap and analyzed for gas exchange. Mice in the cabinet were preconditioned to 30° C. and the basal metabolic rate (BMR) in the post-absorptive state was measured between 8:00 a.m.-12:00 p.m. The O2 consumption and CO2 production of each mouse was analyzed every 5 min over a period of 1 min. […] After injection the O2 consumption and CO2 production rate of each mouse was recorded for 45-60 min with high-resolution recordings at 10 sec intervals. […] Respiratory exchange ratios (RER) and heat production (HP) were calculated from the following formula: (RER=CO2 production/O2 consumption) and (HP[mW]=(4.44+1.43*respiratory exchange ratio)*oxygen consumption [ml/h]).

fasted mice = experiment: Food intake on refeeding of fasted wildtype mice; type: in vivo, Mus musculus; conditions: mice fasted 18 h, 5 nmol i.p. before refeeding, p=0.0181 (FIG. 7)
Description: as §2, §3

UCP1 expression [4] = experiment: UCP1 mRNA expression (qRT-PCR) in primary adipocytes from interscapular brown adipose tissue; type: cell-based, Mus musculus; conditions: 0.1 μM secretin or 0.5 μM isoproterenol, 6 hours, normalized to TFIIB (FIG. 4B)
Description: as §1

In the case of secretin, the “UCP1 mRNA expression in white adipocytes versus PBS” value (UCP1 expression [1]) is reported as “increased the expression of UCP1”, the “refeeding food intake in Ucp1 knockout mice” value (UCP1 knockout mice [2]) is reported as “did not inhibit refeeding” and the “heat production and its AUC versus PBS” value (UCP1 knockout mice [3]) is reported as “no difference”. For the same substance, the “food intake during the first two hours of refeeding versus PBS” value (fasted mice) was “significant inhibition of food intake” and the “UCP1 mRNA expression in brown adipocytes versus PBS” value (UCP1 expression [4]) was “significantly increased the expression of the UCP1 gene”.
